Data taken from patent publication US20250213707A1, “COMPOUND FOR INCREASING EFFICACY OF ONCOLYTIC VIRUSES” (ABLEVIA BIOTECH GMBH, priority 2022, published 2025).

Columns and labels:
[1] = test system: IgG from human donors (anti-AAV antibodies); assay: Screen for anti-AAV antibodies in human sera, 2452 linear 15-amino-acid AAV peptides on microarrays (Table 1); assay type: binding; parameters: key to group II: X: the deduplicated aggregate of the respective top 25 peptide hits for each donor was compiled and designated as group II; key to group III: X: the deduplicated aggregate of the respective top 50 peptide hits for each donor was compiled and designated as group III; settings: human donor IgG binding to linear 15-amino-acid AAV peptides on microarray, fluorescence; for group II: membership in deduplicated aggregate of top 25 peptide hits for each donor; for group III: membership in deduplicated aggregate of top 50 peptide hits for each donor
Method in brief: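 Peptide hits were grouped I to IV by pooling each donor's top 10, 25, 50 or 250 background-corrected fluorescence signals, after deduplication. Signals came from donor IgG, purified on protein G, bound to arrayed 15-residue linear peptides (2452 total) spanning 16 AAV sequences.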

[2] = test system: polyclonal antibody ab6982; assay: Epitope mapping of polyclonal antibody ab6982 against cyclic peptides of Ad5 fiber and hexon (peptide array); assay type: binding, rabbits
Source text: Polyclonal antibody ab6982 (Abcam) was generated by immunizing rabbits with purified AdV. It reacts with all capsid proteins of Ad5 including hexon, fiber and penton. It was shown that the antibody neutralizes Ad5 infection in a bioassay at 1000 adenovirus 5 particles/ml, a 50% inactivation of the adenovirus can be achieved at a 1/25,000 dilution of the antibody. In order to identify epitopic regions that could contain peptides for ab6982 paratope binding, the antibody was mapped against the sequences of fiber (NCBI Reference Sequence: AP 000226.1) and hexon protein (GenBank: BAG48782.1). […] The binding signal of this antibody to the array yielded several peptides that were aligned and clustered against the sequence of the protein. The peptide clusters were named cluster1-7 (fiber protein) and clusters8-16 (hexon protein) according to their ranked order of cyclic peptide hits (i.e. cluster contains the strongest binders, cluster2 the second strongest etc.). Below are the aligments of the corresponding peptides that bind to polyclonal antibody ab6982.

[3] = cyclic peptides of fiber protein (clusters 1-7)
[4] = cyclic peptides of hexon protein (clusters 8-16)

Substance | antibody binding signal ranking from the microarray experiment [2, 4] | also measured
KKRILEPLGLVEEG [SEQ ID NO: 2034] | – | group II [1]: X; group III [1]: X; antibody binding signal ranking from the microarray experiment [2, 3]: 066
KKRILEPLGLVEEA [SEQ ID NO: 2023] | – | group II [1]: X; group III [1]: X; antibody binding signal ranking from the microarray experiment [2, 3]: 023
HSQSLDRMMNPLLD [SEQ ID NO: 2033] | – | group II [1]: X; group III [1]: X; antibody binding signal ranking from the microarray experiment [2, 3]: 062
280 (YSEDVDIETPDTH) [compound 280] | 059 | –
213 (EINLEEE) [compound 213] | 06 | –
214 (ALEINLEEED) [compound 214] | 07 | –
180 (SFLDPEYWNF) [compound 180] | – | antibody binding signal ranking from the microarray experiment [2, 3]: 018
287 (IETPDTHISYMP) [compound 287] | 159 | –
219 (AATALEINLEEED) [compound 219] | 14 | –
295 (YIPESYKDRMYSF) [compound 295] | 152 | –
277 (DIETPDTHIS) [compound 277] | 055 | –
296 (PESYKDRMYSFFR) [compound 296] | 153 | –
249 (EEDDDNE) [compound 249] | 108 | –
305 (NYNIGYQGFY) [compound 305] | 106 | –
285 (EDVDIETPDT) [compound 285] | 070 | –
264 (EAATALEINL) [compound 264] | 124 | –
237 (INLEEED) [compound 237] | 032 | –
194 (FATSSYTFSY) [compound 194] | – | antibody binding signal ranking from the microarray experiment [2, 3]: 043
235 (EINLEEEDDDNED) [compound 235] | 028 | –
173 (SMSFSWD) [compound 173] | – | antibody binding signal ranking from the microarray experiment [2, 3]: 144
245 (DDNEDEV) [compound 245] | 078 | –
253 (EEDDDNEDEV) [compound 253] | 185 | –
191 (LNNSFLD) [compound 191] | – | antibody binding signal ranking from the microarray experiment [2, 3]: 180

Substance | antibody binding signal ranking from the microarray experiment [2, 4] | also measured
236 (NLEEEDDDNEDEV) [compound 236] | 029 | –
307 (MLANYNIGYQGFY) [compound 307] | 123 | –
261 (WDEAATALEINLE) [compound 261] | 042 | –
284 (DIETPDTHISYMP) [compound 284] | 064 | –
279 (IETPDTHISY) [compound 279] | 058 | –
268 (IETPDTH) [compound 268] | 045 | –
309 (FLVQMLANYNIGY) [compound 309] | 184 | –
232 (DEVDEQAEQQKTH) [compound 232] | 24 | –
308 (IGYQGFY) [compound 308] | 136 | –
239 (INLEEEDDDNEDE) [compound 239] | 035 | –
215 (LEINLEEEDD) [compound 215] | 08 | –
310 (NIGYQGF) [compound 310] | 187 | –
234 (DEVDEQAEQQ) [compound 234] | 26 | –
223 (NLEEEDDDNE) [compound 223] | 27 | –
222 (INLEEEDDDN) [compound 222] | 23 | –
243 (EDDDNED) [compound 243] | 063 | –
199 (NEIFATSSYTFSY) [compound 199] | – | antibody binding signal ranking from the microarray experiment [2, 3]: 092
186 (NNSFLDPEYW) [compound 186] | – | antibody binding signal ranking from the microarray experiment [2, 3]: 068
229 (VDEQAEQ) [compound 229] | 20 | –
303 (DRMYSFFRNF) [compound 303] | 072 | –
179 (FLDPEYWNFR) [compound 179] | – | antibody binding signal ranking from the microarray experiment [2, 3]: 017
202 (IFATSSY) [compound 202] | – | antibody binding signal ranking from the microarray experiment [2, 3]: 104
259 (VDEQAEQQKTHVF) [compound 259] | 041 | –

Substance | antibody binding signal ranking from the microarray experiment [2, 4] | also measured
290 (YSFFRNF) [compound 290] | 104 | –
281 (VDIETPDTHISYM) [compound 281] | 060 | –
298 (TRYFSMW) [compound 298] | 073 | –
212 (TALEINLEEEDDD) [compound 212] | 05 | –
195 (YINEIFATSSYTF) [compound 195] | – | antibody binding signal ranking from the microarray experiment [2, 3]: 055
257 (VDEQAEQQKT) [compound 257] | 036 | –
293 (ESYKDRMYSF) [compound 293] | 127 | –
228 (DNEDEVDEQA) [compound 228] | 18 | –
266 (LYSEDVDIETPDT) [compound 266] | 040 | –
220 (EINLEEEDDD) [compound 220] | 15 | –
189 (LNNSFLDPEY) [compound 189] | – | antibody binding signal ranking from the microarray experiment [2, 3]: 114
283 (DIETPDT) [compound 283] | 062 | –
289 (DRMYSFF) [compound 289] | 086 | –
174 (SWDWSGHNYI) [compound 174] | – | antibody binding signal ranking from the microarray experiment [2, 3]: 149
291 (IPESYKDRMYSFF) [compound 291] | 107 | –
242 (DDNEDEVDEQ) [compound 242] | 057 | –
181 (PEYWNFR) [compound 181] | – | antibody binding signal ranking from the microarray experiment [2, 3]: 031
203 (INEIFATSSY) [compound 203] | – | antibody binding signal ranking from the microarray experiment [2, 3]: 110
217 (DEAATALEINLEE) [compound 217] | 11 | –
193 (SSYTFSY) [compound 193] | – | antibody binding signal ranking from the microarray experiment [2, 3]: 042
176 (SMSFSWDWSGHNY) [compound 176] | – | antibody binding signal ranking from the microarray experiment [2, 3]: 176
301 (DSIGDRTRYFSMW) [compound 301] | 100 | –
216 (TALEINLEEE) [compound 216] | 09 | –

Substance | antibody binding signal ranking from the microarray experiment [2, 4] | also measured
184 (FLDPEYW) [compound 184] | – | antibody binding signal ranking from the microarray experiment [2, 3]: 050
294 (KDRMYSF) [compound 294] | 143 | –
262 (AATALEINLE) [compound 262] | 043 | –
258 (EVDEQAEQQKTHV) [compound 258] | 038 | –
182 (LNNSFLDPEYWNF) [compound 182] | – | antibody binding signal ranking from the microarray experiment [2, 3]: 033
175 (AYSMSFS) [compound 175] | – | antibody binding signal ranking from the microarray experiment [2, 3]: 167
252 (EEDDDNEDEVDEQ) [compound 252] | 148 | –
188 (EYWNFRN) [compound 188] | – | antibody binding signal ranking from the microarray experiment [2, 3]: 113
226 (DDNEDEVDEQAEQ) [compound 226] | 16 | –
227 (EVDEQAE) [compound 227] | 17 | –
206 (YTFSYIA) [compound 206] | – | antibody binding signal ranking from the microarray experiment [2, 3]: 181
238 (LEEEDDDNED) [compound 238] | 034 | –
211 (LEINLEE) [compound 211] | 04 | –
185 (DPEYWNF) [compound 185] | – | antibody binding signal ranking from the microarray experiment [2, 3]: 053
300 (DSIGDRTRYF) [compound 300] | 095 | –
302 (GDRTRYFSMW) [compound 302] | 101 | –
251 (EDEVDEQ) [compound 251] | 126 | –
282 (PKVVLYSEDVDIE) [compound 282] | 061 | –
190 (LDPEYWNFRN) [compound 190] | – | antibody binding signal ranking from the microarray experiment [2, 3]: 155
246 (DDDNEDEVDE) [compound 246] | 087 | –
292 (SYKDRMYSFF) [compound 292] | 120 | –
